Results as given in US4927837A, “Derivatives of 3-piperidine carbaldehyde oxime and their use as medicaments” (Roussel Uclaf, priority 1987, dated 1990).
Where two headings read alike, the source gives them in different places.

How the values were obtained:
[1] = Variation in body temperature (duration of action); format: in vivo, mice
Protocol: (§1) The test is carried out on male mice (CD1 Charles Rivers) weighing 25 to 30 g, which have gone without food for 6 hours.
The body temperature is noted using a thermocouple placed about 1.5 cm inside the rectum, and connected to an electric temperature recorder. […]
The duration of action of the products is determined using doses capable of reducing the temperature by 1° to 1.5° C.

[2] = Diarrheic activity in mice, oral route; details: mouse, in vivo, male mice, read-out: DE50 (dose which causes diarrhea in 50% of the animals)
Protocol: The test is carried out on male mice (CD1 Charles Rivers) weighing 25 to 30 g, which have gone without food for 6 hours. The product, dissolved at 5% in methocel, is administered by oral route, using a probang.
The control animals receive only the excipient.
After treatment, the animals are put separately into cages, the bottoms of which are covered with blotting paper, and are put under observation for 30, 60, 120 and 180 minutes.
The absorbent sheets of paper are changed after each observation.
The consistency of the faeces is evaluated according to the Randall and Baruth method (Arch. Int. Pharmacodyn. 220, 94, 1976), according to the scale of the following values:
1: slightly moist faeces with or without halo of humidity,
2: slightly moist faeces with presence of well-defined circle of humidity,
3: moist faeces with presence of a large circle of humidity,
4: faeces without consistency with presence of a very large circle of humidity.
For each product, the dose which causes diarrhea in 50% of the animals is noted according to the method of Miller and Tainter (Proc. Soc. Exp. Biol. Med., 57, 261, 1944).

[3] = test system: patients who have a memory deficiency; details: intravenous route; cited from earlier work
[4] = test system: central cholinergic system; details: cited from earlier work
[5] = Hypothermic activity in mice; format: in vivo; details: Mus musculus, male mice, read-out: Effective dose (-1° C.)
Protocol: as §1
The body temperature is noted using a thermocouple placed about 1.5 cm inside the rectum, and connected to an electric temperature recorder.
The products are administered by oral or subcutaneous route and the temperatures are noted at instant 0 and at 30 minutes, 1 hour, 2 hours and 21/2 hours after treatment.
The degree of hypothermia is evaluated as the difference between the treated animals and the control animals, and the dose necessary for reducing the body temperature by 1° C. is determined.

[6] = test system: isolated ileum of guinea pigs; assay: Test on the isolated ileum of guinea pigs (agonistic activity); details: Cavia porcellus; isolated guinea pig ileum, contraction, Tyrode's solution, 37° C.; read-out: pD2 (negative logarithm of the dose which produces 50% of the maximum effect) (converted)
Protocol: Fragments of the ileum of guinea pigs killed by decapitation are removed. The isolated ileum is placed in 10 cm^3 of Tyrode's solution at 37° C. and aerated by a mixture of oxygen (95%) and carbon dioxide gas (5%). The contractions due to the products are recorded with a detector linked to a polygraph. The products under test are added at concentrations between 1.10^-4 M and 1.10^-8 M/1.
The products showing a contracting effect are tested vis a vis atropine and hexamethonium in order to establish whether the activity is of "muscarine" or "nicotine" type.
The possible antagonistic activity of the products is tested vis a vis acetylcholine.
The agonistic activity is expressed in pD2 (negative logarithm of the dose which produces 50% of the maximum effect.)

in vivo = details: mouse, male mice, oral route, mortality noted for 7 days
Protocol: The test is carried out on male mice (CD1 Charles Rivers) of 22 to 24 g, which have gone without food for 16 hours.

[7] = 2 mg/kg, sc, 30 min, **p < 0.01
[8] = 2 mg/kg, sc, 60 min, **p < 0.01

## COC(=O)C1=CCCN(C)C1 [Arecoline, HBr, reference compound]
[1]; 3.5 mg/kg, sc, 0 min
  Variation in body temperature: -0.1 °C
[1]; 3.5 mg/kg, sc, 30 min, **p < 0.01
  Variation in body temperature: -1.5 °C
[1]; 3.5 mg/kg, sc, 60 min
  Variation in body temperature: -0.1 °C
[1]; 3.5 mg/kg, sc, 120 min
  Variation in body temperature: +0.2 °C
[1]; 3.5 mg/kg, sc, 180 min
  Variation in body temperature: +0.2 °C

## COC(=O)C1=CCCN(C)C1 [Arecoline, reference compound]
[2]
  ED50: 35 mg/kg
[3]
  effect on patients who have a memory deficiency: positive effect
[4]; in vivo
  period of action: short-lasting period of action
[4]; oral route
  activity by oral route: very weak activity by oral route
[5]; O. R. (oral route)
  ED (-1 C): 194 mg/kg
[5]; SC. R. (subcutaneous route)
  ED (-1 C): 3 mg/kg
[6]
  EC50: 0.126 µM

## CON=CC1CCCNC1 (stereo not drawn) [Example 2, 3-piperidine carbaldehyde O-methyloxime]
In vivo
  LD50 at 168 h: 125 mg/kg
[1]; 2 mg/kg, os, 0 min
  Variation in body temperature: +0.1 °C
[1]; 2 mg/kg, os, 30 min, **p < 0.01
  Variation in body temperature: -1.7 °C
[1]; 2 mg/kg, os, 60 min, **p < 0.01
  Variation in body temperature: -1.4 °C
[1]; 2 mg/kg, os, 120 min
  Variation in body temperature: +0.1 °C
[1]; 2 mg/kg, os, 180 min
  Variation in body temperature: +0.1 °C
[1]; [7]
  Variation in body temperature: -1.7 °C
[1]; [8]
  Variation in body temperature: -1.5 °C
[1]; 2 mg/kg, sc, 180 min
  Variation in body temperature: +0.1 °C
[2]
  ED50: 3 mg/kg
[5]; O. R. (oral route)
  ED (-1 C): 1.2 mg/kg
[5]; SC. R. (subcutaneous route)
  ED (-1 C): 1.2 mg/kg
[6]
  EC50: 0.891 µM

## C#CCON=CC1CCCNC1 (stereo not drawn) [Example 6, 3-piperidine carbaldehyde O-(2-propynyl) oxime]
In vivo
  LD50 at 168 h: 100 mg/kg
[1]; 12.5 mg/kg, os, 0 min
  Variation in body temperature: +0.1 °C
[1]; 12.5 mg/kg, os, 30 min, **p < 0.01
  Variation in body temperature: -1.2 °C
[1]; 12.5 mg/kg, os, 60 min, **p < 0.01
  Variation in body temperature: -1.4 °C
[1]; 12.5 mg/kg, os, 120 min
  Variation in body temperature: -0.1 °C
[1]; 12.5 mg/kg, os, 180 min
  Variation in body temperature: +0.1 °C
[1]; 12.5 mg/kg, sc, 0 min
  Variation in body temperature: -0.1 °C
[1]; 12.5 mg/kg, sc, 30 min, **p < 0.01
  Variation in body temperature: -1.6 °C
[1]; 12.5 mg/kg, sc, 60 min, **p < 0.01
  Variation in body temperature: -1.5 °C
[1]; 12.5 mg/kg, sc, 120 min
  Variation in body temperature: -0.2 °C
[1]; 12.5 mg/kg, sc, 180 min
  Variation in body temperature: +0.1 °C
[2]
  ED50: 12 mg/kg
[5]; O. R. (oral route)
  ED (-1 C): 7 mg/kg
[5]; SC. R. (subcutaneous route)
  ED (-1 C): 7 mg/kg
[6]
  EC50: 4.47 µM

## CON=CC1CCCN(OC(=O)c2ccccc2)C1 (stereo not drawn) [Example 7, 1-benzoyloxy-3-piperidine carbaldehyde (O-methyloxime)]
In vivo
  LD50 at 168 h: > 500 mg/kg
[1]; 5 mg/kg, os, 0 min
  Variation in body temperature: +0.1 °C
[1]; 5 mg/kg, os, 30 min, **p < 0.01
  Variation in body temperature: -1.2 °C
[1]; 5 mg/kg, os, 60 min, **p < 0.01
  Variation in body temperature: -1.0 °C
[1]; 5 mg/kg, os, 120 min
  Variation in body temperature: +0.1 °C
[1]; 5 mg/kg, os, 180 min
  Variation in body temperature: +0.1 °C
[1]; 5 mg/kg, sc, 0 min
  Variation in body temperature: +0.1 °C
[1]; 5 mg/kg, sc, 30 min, **p < 0.01
  Variation in body temperature: -1.2 °C
[1]; 5 mg/kg, sc, 60 min, **p < 0.01
  Variation in body temperature: -1.1 °C
[1]; 5 mg/kg, sc, 180 min
  Variation in body temperature: +0.1 °C
[2]
  ED50: 10 mg/kg
[5]; O. R. (oral route)
  ED (-1 C): 4 mg/kg
[5]; SC. R. (subcutaneous route)
  ED (-1 C): 4 mg/kg
[6]
  EC50: > 100 µM

## CON=CC1CCCN(O)C1 (stereo not drawn) [Example 8, 1-hydroxy-3-piperidine carbaldehyde (O-methyloxime)]
In vivo
  LD50 at 168 h: 200 mg/kg
[1]; 2 mg/kg, sc, 0 min
  Variation in body temperature: +0.1 °C
[1]; [7]
  Variation in body temperature: -1.2 °C
[1]; [8]
  Variation in body temperature: -1.0 °C
[1]; 2.5 mg/kg, os, 0 min
  Variation in body temperature: +0.1 °C
[1]; 2.5 mg/kg, os, 30 min, **p < 0.01
  Variation in body temperature: -1.2 °C
[1]; 2.5 mg/kg, os, 60 min, **p < 0.01
  Variation in body temperature: -1.0 °C
[1]; 2.5 mg/kg, os, 180 min
  Variation in body temperature: +0.2 °C
[2]
  ED50: 4 mg/kg
[5]; O. R. (oral route)
  ED (-1 C): 2 mg/kg
[5]; SC. R. (subcutaneous route)
  ED (-1 C): 1.6 mg/kg
[6]
  EC50: 11.2 µM
